Test results taken from PMC10335629 (Journal of the American Chemical Society, 2023).
Like-named read-outs stand apart in the source and are kept apart here. No end group written: not given here.

Key:
nLuc-GLP-2R [1] = biological target: nLuc-GLP-2R (UniProt O95838); assay: FRET or BRET
nLuc-GLP-2R [2] = biological target: nLuc-GLP-2R (UniProt O95838)
GLP-2R = biological target: T1, GLP-2R (Homo sapiens, UniProt O95838); assay: GLP-2R activation: cAMP production, GloSensor HEK293 cells
T1 sequence (O95838 1-553): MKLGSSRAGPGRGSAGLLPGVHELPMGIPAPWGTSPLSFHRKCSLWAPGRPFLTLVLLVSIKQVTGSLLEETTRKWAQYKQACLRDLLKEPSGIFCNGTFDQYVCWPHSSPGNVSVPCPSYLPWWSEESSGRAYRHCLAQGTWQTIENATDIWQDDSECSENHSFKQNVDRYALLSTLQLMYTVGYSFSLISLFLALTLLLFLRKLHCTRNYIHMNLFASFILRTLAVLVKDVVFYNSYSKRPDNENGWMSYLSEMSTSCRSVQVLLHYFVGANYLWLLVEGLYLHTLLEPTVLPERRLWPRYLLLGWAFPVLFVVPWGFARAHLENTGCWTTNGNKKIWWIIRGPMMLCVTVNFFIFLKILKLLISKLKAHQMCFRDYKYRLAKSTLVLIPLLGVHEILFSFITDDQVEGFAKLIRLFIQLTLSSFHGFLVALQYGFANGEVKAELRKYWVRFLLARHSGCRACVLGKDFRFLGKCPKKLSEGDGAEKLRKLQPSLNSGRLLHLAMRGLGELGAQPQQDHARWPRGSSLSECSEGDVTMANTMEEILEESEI

nLuc-GLP-2R [3] = biological target: T2, nLuc-GLP-2R (Homo sapiens, UniProt O95838); assay: nLuc-GLP-2R competition binding
T2 sequence (O95838 1-553): T1 sequence (O95838 1-553)

GLP-1R = GLP-1R (Homo sapiens, UniProt P43220); assay: GLP-1R activation: cAMP production, GloSensor HEK293 cells; type: cell-based
nLuc-GLP-1R = nLuc-GLP-1R (Homo sapiens, UniProt P43220); assay: nLuc-GLP-1R competition binding
nLuc-GLP-2R [4] = biological target: nLuc-GLP-2R (UniProt O95838); remark: listed apart in the source

Chain of GLP-1R (P43220 24-463): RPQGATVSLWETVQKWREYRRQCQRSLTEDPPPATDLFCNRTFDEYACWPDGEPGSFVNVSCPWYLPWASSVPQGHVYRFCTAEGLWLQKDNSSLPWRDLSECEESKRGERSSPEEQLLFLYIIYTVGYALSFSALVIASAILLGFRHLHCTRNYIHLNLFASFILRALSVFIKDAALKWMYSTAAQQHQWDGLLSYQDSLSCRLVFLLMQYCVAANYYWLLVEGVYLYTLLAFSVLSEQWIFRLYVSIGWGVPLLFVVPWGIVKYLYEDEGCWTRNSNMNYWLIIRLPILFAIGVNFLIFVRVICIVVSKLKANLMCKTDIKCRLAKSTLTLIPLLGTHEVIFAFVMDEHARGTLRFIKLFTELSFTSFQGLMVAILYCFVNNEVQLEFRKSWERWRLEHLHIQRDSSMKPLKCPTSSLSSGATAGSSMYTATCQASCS
Chain of nLuc-GLP-1R (P43220 24-463): as above

GLP-2 (peptide)
IC50 (nLuc-GLP-2R [1]): 25 nM | GLP-2R cAMP Production, % Max (normalized to GLP-2) (nLuc-GLP-2R [2]): 99% | GLP-2R cAMP Production, EC50 (native GLP-2R) (nLuc-GLP-2R [2]): 0.086 nM

GLP-2-NH2: C-terminal amide analogue of the hormone GLP-2
effect of altering the C-terminus to a primary amide on GLP-2R activation (GLP-2R; natural sequence, compared with GLP-2, Figure S1): no effect on GLP-2R activation

HGEGTFSSELATILDALAARDFIAWLIATKITDKKKKKK-NH2 (C-terminus assumed) [GLE, glepaglutide]
lower affinity for nLuc-GLP-2R relative to GLP-2 (nLuc-GLP-2R [3]; competition BRET, Figure S2): ~ 10 fold | Emax (GLP-2R; HEK293, read-out: GLP-2R cAMP Production % Max): 98 ± 1% | GLP-1R cAMP Production % Max (GLP-1R; maximal response normalized relative to GLE, ≥4 independent experiments, ± S.E.M., NR = No Response): 95 ± 2%

HGEGTFSSELATILDALAARDFIAWLIATKITDKKKKKK-NH2 [GLE, glepaglutide]
IC50 (nLuc-GLP-1R): 290 nM | IC50 (nLuc-GLP-2R [3]): 170 nM | EC50 (GLP-2R): 0.44 nM | EC50 (GLP-1R): 5.1 nM

glepaglutide (GLE) (peptide)
GLP-2R cAMP Production, EC50 (native GLP-2R) (nLuc-GLP-2R [4]): 0.44 nM
